Legend:
[1] = molecular target: T1, Dual specificity mitogen-activated protein kinase kinase 6 (Homo sapiens) (UniProt P52564); test: Selectivity interaction (KinomeScan (DiscoverX)) EUB0000229b MAP2K6; settings: at 10 µM
T1 sequence (whole entry): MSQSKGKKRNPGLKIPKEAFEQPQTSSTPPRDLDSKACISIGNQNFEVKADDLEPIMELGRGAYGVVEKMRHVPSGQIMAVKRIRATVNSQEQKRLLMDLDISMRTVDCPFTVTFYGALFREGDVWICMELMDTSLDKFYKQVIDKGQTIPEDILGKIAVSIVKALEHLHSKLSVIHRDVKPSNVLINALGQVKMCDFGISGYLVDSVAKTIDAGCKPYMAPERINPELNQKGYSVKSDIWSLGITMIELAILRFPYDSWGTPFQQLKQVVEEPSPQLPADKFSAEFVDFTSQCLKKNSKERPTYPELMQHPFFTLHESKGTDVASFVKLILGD

[2] = molecular target: Serine/threonine-protein kinase tousled-like 2 (Homo sapiens) (UniProt Q86UE8); settings: at 10 µM
[3] = molecular target: T2, Serine/threonine-protein kinase TAO1 (Homo sapiens) (UniProt Q7L7X3); test: Selectivity interaction (ActivX KiNativ screen (kinase selectivity in THP-1 cell lysates)) EUB0000639a TAOK1; type: subcellular; settings: lysate
T2 sequence (whole entry): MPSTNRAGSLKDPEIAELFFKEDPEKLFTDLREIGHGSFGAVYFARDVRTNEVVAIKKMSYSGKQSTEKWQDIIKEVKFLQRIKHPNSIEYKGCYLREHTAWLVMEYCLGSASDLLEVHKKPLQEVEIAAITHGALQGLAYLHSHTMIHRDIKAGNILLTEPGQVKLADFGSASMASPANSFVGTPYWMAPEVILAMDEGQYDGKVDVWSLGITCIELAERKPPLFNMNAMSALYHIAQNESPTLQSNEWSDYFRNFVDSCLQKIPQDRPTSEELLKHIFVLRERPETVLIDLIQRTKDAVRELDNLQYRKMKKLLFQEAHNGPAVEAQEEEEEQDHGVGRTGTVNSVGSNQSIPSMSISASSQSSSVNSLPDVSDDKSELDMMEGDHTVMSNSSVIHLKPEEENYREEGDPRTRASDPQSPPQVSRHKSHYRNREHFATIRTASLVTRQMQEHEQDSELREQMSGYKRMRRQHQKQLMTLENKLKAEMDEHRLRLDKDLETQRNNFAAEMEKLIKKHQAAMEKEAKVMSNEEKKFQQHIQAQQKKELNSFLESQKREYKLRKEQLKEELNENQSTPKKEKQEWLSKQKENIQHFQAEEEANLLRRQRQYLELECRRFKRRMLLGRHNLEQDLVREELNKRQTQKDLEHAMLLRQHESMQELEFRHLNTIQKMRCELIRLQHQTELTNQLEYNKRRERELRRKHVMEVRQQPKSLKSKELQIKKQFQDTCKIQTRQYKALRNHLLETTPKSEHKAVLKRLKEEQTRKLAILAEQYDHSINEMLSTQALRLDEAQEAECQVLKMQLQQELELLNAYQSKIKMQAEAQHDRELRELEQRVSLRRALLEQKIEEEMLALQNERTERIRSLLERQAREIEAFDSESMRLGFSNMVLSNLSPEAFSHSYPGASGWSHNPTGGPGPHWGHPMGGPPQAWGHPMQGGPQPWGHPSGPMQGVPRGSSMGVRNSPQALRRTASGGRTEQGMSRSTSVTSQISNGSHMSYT

[4] = system: Hepatocyte growth factor receptor (Homo sapiens), P08581 [Y1235D]; test: (§1) Selectivity interaction (KinomeScan (DiscoverX)) EUB0000618a MET; settings: at 10 µM
[5] = molecular target: Hepatocyte growth factor receptor (Homo sapiens, UniProt P08581); test: as §1; settings: at 10 µM
[6] = molecular target: T3, Cytoplasmic tyrosine-protein kinase BMX (Homo sapiens) (UniProt P51813); test: Selectivity interaction (KinomeScan (DiscoverX)) EUB0000607a BMX; settings: at 10 µM
T3 sequence (whole entry): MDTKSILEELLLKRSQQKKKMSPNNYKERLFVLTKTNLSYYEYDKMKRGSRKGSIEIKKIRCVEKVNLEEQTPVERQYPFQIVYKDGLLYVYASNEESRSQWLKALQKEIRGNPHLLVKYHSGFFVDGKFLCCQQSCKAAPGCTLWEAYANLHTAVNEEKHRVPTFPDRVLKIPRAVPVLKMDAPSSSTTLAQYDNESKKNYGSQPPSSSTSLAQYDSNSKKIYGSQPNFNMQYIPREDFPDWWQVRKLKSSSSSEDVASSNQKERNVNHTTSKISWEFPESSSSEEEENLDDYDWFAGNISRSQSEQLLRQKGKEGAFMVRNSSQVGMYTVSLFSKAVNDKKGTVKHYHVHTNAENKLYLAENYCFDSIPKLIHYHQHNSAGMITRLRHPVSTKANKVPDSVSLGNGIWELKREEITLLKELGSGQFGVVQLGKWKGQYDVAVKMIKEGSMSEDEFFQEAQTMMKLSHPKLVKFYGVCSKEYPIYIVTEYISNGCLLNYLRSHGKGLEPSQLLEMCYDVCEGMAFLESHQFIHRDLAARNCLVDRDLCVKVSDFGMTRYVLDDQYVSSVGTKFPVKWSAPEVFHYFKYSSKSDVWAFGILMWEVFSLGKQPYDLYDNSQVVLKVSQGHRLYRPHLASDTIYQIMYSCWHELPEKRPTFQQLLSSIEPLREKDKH

[7] = molecular target: T4, cGMP-dependent protein kinase 1 (Homo sapiens) (UniProt Q13976); test: Selectivity interaction (KinomeScan (DiscoverX)) EUB0000607a PRKG1; settings: at 10 µM
T4 sequence (whole entry): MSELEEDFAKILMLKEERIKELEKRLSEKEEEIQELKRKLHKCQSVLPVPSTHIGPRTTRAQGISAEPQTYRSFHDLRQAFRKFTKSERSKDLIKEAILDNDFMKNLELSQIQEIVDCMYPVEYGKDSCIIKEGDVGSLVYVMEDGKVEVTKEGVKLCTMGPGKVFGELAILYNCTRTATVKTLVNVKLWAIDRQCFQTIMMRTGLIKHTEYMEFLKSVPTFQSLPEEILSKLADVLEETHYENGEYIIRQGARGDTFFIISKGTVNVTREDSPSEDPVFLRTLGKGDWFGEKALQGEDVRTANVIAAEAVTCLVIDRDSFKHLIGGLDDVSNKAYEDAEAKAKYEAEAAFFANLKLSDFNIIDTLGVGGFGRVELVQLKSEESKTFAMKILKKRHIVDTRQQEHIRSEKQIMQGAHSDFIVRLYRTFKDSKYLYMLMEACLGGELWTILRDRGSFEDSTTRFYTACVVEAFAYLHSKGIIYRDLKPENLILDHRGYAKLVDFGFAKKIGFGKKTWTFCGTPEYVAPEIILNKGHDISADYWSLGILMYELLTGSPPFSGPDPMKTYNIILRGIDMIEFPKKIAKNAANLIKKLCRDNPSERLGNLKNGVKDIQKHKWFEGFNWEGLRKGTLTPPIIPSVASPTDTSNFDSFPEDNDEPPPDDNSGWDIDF

Chain of Hepatocyte growth factor receptor (P08581 whole entry): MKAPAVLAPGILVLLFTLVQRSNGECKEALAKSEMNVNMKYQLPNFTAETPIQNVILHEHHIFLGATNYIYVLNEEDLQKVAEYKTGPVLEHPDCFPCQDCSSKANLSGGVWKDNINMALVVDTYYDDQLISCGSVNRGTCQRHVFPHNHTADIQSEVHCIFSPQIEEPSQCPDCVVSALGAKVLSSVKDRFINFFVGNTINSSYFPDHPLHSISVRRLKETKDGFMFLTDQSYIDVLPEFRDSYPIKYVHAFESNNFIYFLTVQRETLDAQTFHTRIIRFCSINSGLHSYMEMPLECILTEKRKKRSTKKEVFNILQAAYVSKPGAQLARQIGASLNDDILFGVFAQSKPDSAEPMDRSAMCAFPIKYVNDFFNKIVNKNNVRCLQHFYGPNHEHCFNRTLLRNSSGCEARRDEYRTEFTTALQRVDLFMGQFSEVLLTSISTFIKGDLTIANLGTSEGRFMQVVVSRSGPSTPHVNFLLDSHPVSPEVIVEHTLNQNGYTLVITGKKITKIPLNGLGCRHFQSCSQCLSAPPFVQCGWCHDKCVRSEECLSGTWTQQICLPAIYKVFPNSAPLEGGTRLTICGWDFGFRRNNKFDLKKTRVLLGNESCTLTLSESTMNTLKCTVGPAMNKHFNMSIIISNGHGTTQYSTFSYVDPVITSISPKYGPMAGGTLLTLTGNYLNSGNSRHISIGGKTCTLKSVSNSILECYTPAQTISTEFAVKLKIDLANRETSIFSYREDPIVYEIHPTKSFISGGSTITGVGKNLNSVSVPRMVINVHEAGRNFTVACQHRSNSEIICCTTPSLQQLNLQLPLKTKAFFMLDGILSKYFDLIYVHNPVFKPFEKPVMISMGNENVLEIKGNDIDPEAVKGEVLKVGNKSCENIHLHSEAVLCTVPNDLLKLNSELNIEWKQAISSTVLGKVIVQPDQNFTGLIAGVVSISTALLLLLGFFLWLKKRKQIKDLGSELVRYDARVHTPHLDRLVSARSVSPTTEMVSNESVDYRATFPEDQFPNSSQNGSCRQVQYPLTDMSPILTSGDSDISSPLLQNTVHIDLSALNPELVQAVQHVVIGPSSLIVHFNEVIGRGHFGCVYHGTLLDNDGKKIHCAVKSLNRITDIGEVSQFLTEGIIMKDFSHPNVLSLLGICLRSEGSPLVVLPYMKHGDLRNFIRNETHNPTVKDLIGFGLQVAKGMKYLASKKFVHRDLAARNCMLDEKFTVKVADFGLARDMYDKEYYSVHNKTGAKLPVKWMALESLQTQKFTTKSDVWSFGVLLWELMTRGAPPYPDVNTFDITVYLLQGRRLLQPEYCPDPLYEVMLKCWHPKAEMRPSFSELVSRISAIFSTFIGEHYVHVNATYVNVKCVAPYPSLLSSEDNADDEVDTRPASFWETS
Chain of Hepatocyte growth factor receptor (Homo sapiens), P08581 [Y1235D] (P08581 whole entry Y1235D): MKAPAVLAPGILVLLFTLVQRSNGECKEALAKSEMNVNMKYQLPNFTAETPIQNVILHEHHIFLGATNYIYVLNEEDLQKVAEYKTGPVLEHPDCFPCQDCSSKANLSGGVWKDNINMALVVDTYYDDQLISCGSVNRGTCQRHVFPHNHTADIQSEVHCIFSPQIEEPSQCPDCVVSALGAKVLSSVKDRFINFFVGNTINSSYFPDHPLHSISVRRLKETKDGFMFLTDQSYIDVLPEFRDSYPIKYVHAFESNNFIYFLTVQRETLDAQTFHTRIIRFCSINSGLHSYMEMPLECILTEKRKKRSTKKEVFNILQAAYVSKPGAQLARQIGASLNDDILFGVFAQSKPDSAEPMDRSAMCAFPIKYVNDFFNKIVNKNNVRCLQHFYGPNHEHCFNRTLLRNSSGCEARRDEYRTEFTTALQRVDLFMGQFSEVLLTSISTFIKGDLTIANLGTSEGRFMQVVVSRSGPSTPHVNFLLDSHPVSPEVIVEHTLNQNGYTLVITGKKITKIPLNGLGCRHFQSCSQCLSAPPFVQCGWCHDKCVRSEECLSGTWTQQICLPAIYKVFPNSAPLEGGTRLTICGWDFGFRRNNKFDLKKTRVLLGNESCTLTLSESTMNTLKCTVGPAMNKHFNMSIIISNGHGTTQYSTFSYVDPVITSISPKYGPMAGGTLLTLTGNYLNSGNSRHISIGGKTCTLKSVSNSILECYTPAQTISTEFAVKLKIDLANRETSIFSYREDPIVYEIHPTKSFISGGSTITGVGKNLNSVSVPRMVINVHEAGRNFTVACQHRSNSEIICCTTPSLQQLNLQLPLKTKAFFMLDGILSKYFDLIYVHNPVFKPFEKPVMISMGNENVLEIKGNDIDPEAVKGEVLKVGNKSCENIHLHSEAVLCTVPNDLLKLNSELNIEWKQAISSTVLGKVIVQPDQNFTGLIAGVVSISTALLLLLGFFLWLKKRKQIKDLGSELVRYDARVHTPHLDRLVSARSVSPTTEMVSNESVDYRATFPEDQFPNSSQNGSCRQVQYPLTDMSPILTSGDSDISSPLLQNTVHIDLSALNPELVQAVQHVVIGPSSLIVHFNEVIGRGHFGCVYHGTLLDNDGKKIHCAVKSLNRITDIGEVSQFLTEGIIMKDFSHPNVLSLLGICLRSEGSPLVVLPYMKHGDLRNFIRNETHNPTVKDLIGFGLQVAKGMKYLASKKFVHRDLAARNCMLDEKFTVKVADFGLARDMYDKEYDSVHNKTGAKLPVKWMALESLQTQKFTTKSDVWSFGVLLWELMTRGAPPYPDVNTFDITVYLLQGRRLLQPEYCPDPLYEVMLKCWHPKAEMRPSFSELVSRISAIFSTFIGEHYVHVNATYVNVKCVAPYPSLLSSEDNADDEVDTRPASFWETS
Chain of Serine/threonine-protein kinase tousled-like 2 (Homo sapiens) (Q86UE8 whole entry, looked up): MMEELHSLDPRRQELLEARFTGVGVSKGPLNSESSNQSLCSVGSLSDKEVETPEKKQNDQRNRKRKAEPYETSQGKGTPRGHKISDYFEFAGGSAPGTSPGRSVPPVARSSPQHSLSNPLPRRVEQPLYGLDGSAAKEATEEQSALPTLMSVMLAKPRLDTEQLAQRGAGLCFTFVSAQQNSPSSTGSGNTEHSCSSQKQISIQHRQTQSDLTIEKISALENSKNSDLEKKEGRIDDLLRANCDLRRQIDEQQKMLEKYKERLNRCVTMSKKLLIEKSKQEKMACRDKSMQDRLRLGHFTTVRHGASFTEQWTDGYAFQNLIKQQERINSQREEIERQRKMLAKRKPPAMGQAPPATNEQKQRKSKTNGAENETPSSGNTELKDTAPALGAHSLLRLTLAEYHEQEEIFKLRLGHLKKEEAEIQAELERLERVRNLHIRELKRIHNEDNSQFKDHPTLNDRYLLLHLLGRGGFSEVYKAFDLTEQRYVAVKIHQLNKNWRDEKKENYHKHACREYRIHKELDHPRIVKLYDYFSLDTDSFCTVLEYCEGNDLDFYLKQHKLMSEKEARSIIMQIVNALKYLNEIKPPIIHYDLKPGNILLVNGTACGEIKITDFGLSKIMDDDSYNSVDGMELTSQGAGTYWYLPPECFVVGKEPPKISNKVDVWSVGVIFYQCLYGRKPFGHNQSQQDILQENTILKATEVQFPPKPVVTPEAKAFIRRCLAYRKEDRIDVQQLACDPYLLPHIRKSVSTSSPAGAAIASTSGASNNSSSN

COc1cc(N(C)c2ccnc3ccc(C(F)(F)F)cc23)cc(OC)c1OC
% binding [1]: 75%

CCN(CC)CCCCNc1ncc2cc(-c3cc(OC)cc(OC)c3)c(NC(=O)NC(C)(C)C)nc2n1
% of control [2]: 100%

CC[C@@H]1[C@H](F)C(=O)N[C@@H]1COc1nccc2cc(C(N)=O)c(OC)cc12 [ZIMLOVISERTIB]
% of inhibition ([3]; at 0.01 µM): 6.6%
% of inhibition ([3]; at 0.04 µM): -1.6%
% of inhibition ([3]; at 0.2 µM): 6.9%
% of inhibition ([3]; at 1 µM): 12.9%
% of inhibition ([3]; at 5 µM): 41.7%

O[C@H]1CC[C@H](Nc2ncc3nc(Nc4c(F)cc(F)cc4F)n([C@H]4CCOC4)c3n2)CC1
% of control [4]: 100%
% of control [5]: 100%

CNC(=O)Nc1ccc(-c2nc(N3CC4CCC(C3)O4)c3cnn(C4CCC5(CC4)OCCO5)c3n2)cc1
% of control [6]: 83%
% of control [7]: 100%

Reference: ChEMBL document CHEMBL5465560, “Selectivity Literature for EUbOPEN Chemogenomic Library” (2024)
